Measured values as given in patent publication US20130136719A1, “COMPOUNDS AND METHODS FOR THE TREATMENT OR PREVENTION OF FLAVIVIRUS INFECTIONS” (VERTEX PHARMACEUTICALS INCORPORATED, priority 2009, published 2013).
Where two headings read alike, the source gives them in different places.

Assays:
[1] = [3H]Thymidine incorporation assay (CC50); settings: human
[2] = target: HCV RNA-dependent RNA polymerase (NS5B protein) (Hepatitis C virus genotype 1b, UniProt P26663); assay: biochemical; parameters: species or system HCV-Bk strain
Chain of HCV RNA-dependent RNA polymerase (NS5B protein) (P26663 2420-2989 limits assumed): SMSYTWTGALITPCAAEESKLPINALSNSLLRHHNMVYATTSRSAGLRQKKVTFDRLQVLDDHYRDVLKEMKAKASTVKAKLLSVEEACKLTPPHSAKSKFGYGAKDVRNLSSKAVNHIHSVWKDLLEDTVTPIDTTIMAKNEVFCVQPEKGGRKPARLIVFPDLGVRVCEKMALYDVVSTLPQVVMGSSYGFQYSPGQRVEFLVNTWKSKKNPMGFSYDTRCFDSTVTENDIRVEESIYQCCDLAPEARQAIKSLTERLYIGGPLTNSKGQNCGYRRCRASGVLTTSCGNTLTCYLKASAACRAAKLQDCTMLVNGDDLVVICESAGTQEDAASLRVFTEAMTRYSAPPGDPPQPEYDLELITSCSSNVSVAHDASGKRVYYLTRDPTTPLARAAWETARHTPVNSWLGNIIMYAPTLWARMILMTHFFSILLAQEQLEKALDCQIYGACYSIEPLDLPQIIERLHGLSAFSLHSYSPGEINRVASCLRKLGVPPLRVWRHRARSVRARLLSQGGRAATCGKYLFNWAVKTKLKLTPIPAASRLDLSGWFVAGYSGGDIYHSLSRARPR

[3] = test system: HCV replicon (genotype 1b) in Huh7 cell line ET; assay: microbe, parasite or virus in culture; assay type: cell-based, HCV genotype 1b; settings: read-out: HCV-Replicon-Luci-Et-1b_IC50
[4] = test system: HCV sub-genomic replicon of genotype 1a in cell line W11.8; assay: microbe, parasite or virus in culture; assay type: cell-based, HCV genotype 1a; settings: Hepatitis C virus, W11.8, 96 h, read-out: HCV-Replicon-ELISA-1a IC50

Cc1ccc(C(=O)N(c2cc(C#CC(C)(C)C)sc2C(=O)O)[C@H]2CC[C@H](O)CC2)c(F)c1F [Compound 89, 3-[(2,3-Difluoro-4-methyl-benzoyl)-(trans-4-hydroxy-cyclohexyl)-amino]-5-(3,3-dimethyl-but-1-ynyl)-thiophene-2-carboxylic acid]
CC50 at 72 h [1]: 10 to 100 µM | IC50 [2]: 1 to 10 µM

Cc1ccc(C(=O)N(c2cc(C#CC(C)(C)C)sc2C(=O)O)[C@H]2CC[C@H](O)CC2)cc1 [Compound 19, 5-(3,3-Dimethyl-but-1-ynyl)-3-[(trans-4-hydroxy-cyclohexyl)-(4-methyl-benzoyl)-amino]-thiophene-2-carboxylic acid]
IC50 [2]: 1 to 10 µM

CC(C)(C)C#Cc1cc(N(C(=O)c2ccc(F)cc2)[C@H]2CC[C@H](O)CC2)c(C(=O)O)s1 [Compound 51, 5-(3,3-Dimethyl-but-1-ynyl)-3-[(4-fluoro-benzoyl)-(trans-4-hydroxy-cyclohexyl)-amino]-thiophene-2-carboxylic acid]
CC50 at 72 h [1]: > 100 µM | IC50 [2]: 1 to 10 µM

CC(C)(C)C#Cc1cc(N(C(=O)c2ccc(C(F)(F)F)cc2)[C@H]2CC[C@H](O)CC2)c(C(=O)O)s1 [Compound 22]
IC50 [2]: 1 to 10 µM

CC(C)(C)C#Cc1cc(N(C(=O)c2ccc(Cl)cc2Cl)[C@H]2CC[C@H](O)CC2)c(C(=O)O)s1 [Compound 2, 3-[(2,4-Dichloro-benzoyl)-(trans-4-hydroxy-cyclohexyl)-amino]-5-(3,3-dimethyl-but-1-ynyl)-thiophene-2-carboxylic acid]
IC50 ([3]; Hepatitis C virus, Huh-7, 96 h): < 0.1 µM | IC50 [2]: 0.1 to 1 µM

Cc1ccccc1C(=O)N(c1cc(C#CC(C)(C)C)sc1C(=O)O)[C@H]1CC[C@H](O)CC1 [Compound 88, 5-(3,3-Dimethyl-but-1-ynyl)-3-[(trans-4-hydroxy-cyclohexyl)-(2-methyl-benzoyl)-amino]-thiophene-2-carboxylic acid]
CC50 at 72 h [1]: > 100 µM | IC50 [2]: 1 to 10 µM

CC(C)(C)C#Cc1cc(N(C(=O)c2ccc(Cl)c(F)c2)[C@H]2CC[C@H](O)CC2)c(C(=O)O)s1 [Compound 52, 3-[(4-Chloro-3-fluoro-benzoyl)-(trans-4-hydroxy-cyclohexyl)-amino]-5-(3,3-dimethyl-but-1-ynyl)-thiophene-2-carboxylic acid]
CC50 at 72 h [1]: 10 to 100 µM | IC50 [2]: 1 to 10 µM

Cc1ccc(C(=O)N(c2cc(C#CC(C)(C)C)sc2C(=O)O)[C@H]2CC[C@H](O)CC2)c(Cl)c1 [Compound 53, 3-[(2-Chloro-4-methyl-benzoyl)-(trans-4-hydroxy-cyclohexyl)-amino]-5-(3,3-dimethyl-but-1-ynyl)-thiophene-2-carboxylic acid]
CC50 at 72 h [1]: 10 to 100 µM | IC50 [2]: 1 to 10 µM

Cc1ccc(C(=O)N(c2cc(C#CC(C)(C)C)sc2C(=O)O)[C@H]2CC[C@H](O)CC2)c(C)c1 [Compound 18, 3-[(2,4-Dimethyl-benzoyl)-(trans-4-hydroxy-cyclohexyl)-amino]-5-(3,3-dimethyl-but-1-ynyl)-thiophene-2-carboxylic acid]
CC50 at 72 h [1]: 10 to 100 µM | IC50 ([3]; Hepatitis C virus, Huh-7, 96 h): < 0.1 µM | IC50 [2]: 0.1 to 1 µM

CC(C)N(C(=O)c1ccc(Cl)cc1Cl)c1cc(C#CC(C)(C)C)sc1C(=O)O [Compound 1, 3-[(2,4-Dichloro-benzoyl)-isopropyl-amino]-5-(3,3-dimethyl-but-1-ynyl)-thiophene-2-carboxylic acid]
IC50 [3]: 0.1 to 1 µM | IC50 ([2]; read-out: HCV Polymerase_1b IC50, recombinant truncated NS5B genotype 1b, poly rA/oligo dT, [3H]UTP SPA): 0.1 to 1 µM

CC(C)N(C(=O)c1ccc(Cl)cc1Cl)c1cc(C#CC(C)(C)C)sc1C(=O)O [Compound 96, Sodium 3-[(2,4-dichloro-benzoyl)-isopropyl-amino]-5-(3,3-dimethyl-but-1-ynyl)-thiophene-2-carboxylate]
CC50 at 72 h [1]: 10 to 100 µM | IC50 ([3]; Hepatitis C virus, Huh-7, 96 h): < 0.1 µM | IC50 [2]: 0.1 to 1 µM

CC(C)(C)C#Cc1cc(N(C(=O)c2ccc(Cl)cc2F)[C@H]2CC[C@H](O)CC2)c(C(=O)O)s1 [Compound 17, 3-[(4-Chloro-2-fluoro-benzoyl)-(trans-4-hydroxy-cyclohexyl)-amino]-5-(3,3-dimethyl-but-1-ynyl)-thiophene-2-carboxylic acid]
IC50 ([3]; Hepatitis C virus, Huh-7, 96 h): < 0.1 µM | IC50 [2]: 1 to 10 µM

CC(C)(C)C#Cc1cc(N(C(=O)c2ccccc2Cl)[C@H]2CC[C@H](O)CC2)c(C(=O)O)s1 [Compound 87, 3-[(2-Chloro-benzoyl)-(trans-4-hydroxy-cyclohexyl)-amino]-5-(3,3-dimethyl-but-1-ynyl)-thiophene-2-carboxylic acid]
CC50 at 72 h [1]: > 100 µM | IC50 [2]: 1 to 10 µM

Cc1ccc(C(=O)N(c2cc(C#CC(C)(C)C)sc2C(=O)O)[C@H]2CC[C@H](O)CC2)cc1F [Compound 24, 5-(3,3-Dimethyl-but-1-ynyl)-3-[(3-fluoro-4-methyl-benzoyl)-(trans-4-hydroxy-cyclohexyl)-amino]-thiophene-2-carboxylic acid]
CC50 at 72 h [1]: 10 to 100 µM | IC50 ([3]; Hepatitis C virus, Huh-7, 96 h): < 0.1 µM | IC50 [2]: 1 to 10 µM

CC(C)(C)C#Cc1cc(N(CCO)C(=O)c2ccc(Cl)cc2Cl)c(C(=O)O)s1 [Compound 97, 3-[(2,4-Dichloro-benzoyl)-(2-hydroxy-ethyl)-amino]-5-(3,3-dimethyl-but-1-ynyl)-thiophene-2-carboxylic acid]
CC50 at 72 h [1]: 10 to 100 µM | IC50 ([3]; Hepatitis C virus, Huh-7, 96 h): 0.1 to 1 µM | IC50 [2]: 0.1 to 1 µM

Cc1ccc(C(=O)N(c2cc(C#CC(C)(C)C)sc2C(=O)O)[C@H]2CC[C@H](O)CC2)c(F)c1 [Compound 54, 5-(3,3-Dimethyl-but-1-ynyl)-3-[(2-fluoro-4-methyl-benzoyl)-(trans-4-hydroxy-cyclohexyl)-amino]-thiophene-2-carboxylic acid]
IC50 [2]: 1 to 10 µM

COCCN(C(=O)c1ccc(Cl)cc1Cl)c1cc(C#CC(C)(C)C)sc1C(=O)O [Compound 44, 3-[(2,4-Dichloro-benzoyl)-(2-methoxy-ethyl)-amino]-5-(3,3-dimethyl-but-1-ynyl)-thiophene-2-carboxylic acid]
IC50 [4]: 0.1 to 1 µM | CC50 at 72 h [1]: 10 to 100 µM | IC50 ([3]; Hepatitis C virus, Huh-7, 96 h): < 0.1 µM | IC50 [2]: 0.1 to 1 µM

CC(C)(C)C#Cc1cc(N(C(=O)c2ccc(Cl)cc2Cl)C2CCOCC2)c(C(=O)O)s1 [Compound 26, 3-[(2,4-Dichloro-benzoyl)-(tetrahydro-pyran-4-yl)-amino]-5-(3,3-dimethyl-but-1-ynyl)-thiophene-2-carboxylic acid]
CC50 at 72 h [1]: 10 to 100 µM | IC50 ([3]; Hepatitis C virus, Huh-7, 96 h): < 0.1 µM | IC50 [2]: 1 to 10 µM

CC(C)(C)C#Cc1cc(N(C(=O)c2ccc(Cl)cc2)[C@H]2CC[C@H](O)CC2)c(C(=O)O)s1 [Compound 16, 3-[(4-Chloro-benzoyl)-(trans-4-hydroxy-cyclohexyl)-amino]-5-(3,3-dimethyl-but-1-ynyl)-thiophene-2-carboxylic acid]
CC50 at 72 h [1]: 10 to 100 µM | IC50 [2]: 0.1 to 1 µM
